ChEMBL document CHEMBL1811855, “Xylarenones C-E from an endophytic fungus isolated from Alibertia macrophylla” (J Nat Prod, 2011)

Key:
[1] = target: T1, Proprotein convertase subtilisin/kexin type 7 (Homo sapiens) (UniProt Q16549); test: Inhibition of recombinant type 8 subtilisin using Arg-Glu-(EDANS)- Ser-Gln-Asn-Tyr-Pro-Ile-Val-Gln-Lys-(DALBCYL)-Arg fluorogenic substrate at 0.001 ug/ml preincubated for 1 hr measured after 1 hr at 1 min interval by fluorescence assay
T1 sequence (whole entry): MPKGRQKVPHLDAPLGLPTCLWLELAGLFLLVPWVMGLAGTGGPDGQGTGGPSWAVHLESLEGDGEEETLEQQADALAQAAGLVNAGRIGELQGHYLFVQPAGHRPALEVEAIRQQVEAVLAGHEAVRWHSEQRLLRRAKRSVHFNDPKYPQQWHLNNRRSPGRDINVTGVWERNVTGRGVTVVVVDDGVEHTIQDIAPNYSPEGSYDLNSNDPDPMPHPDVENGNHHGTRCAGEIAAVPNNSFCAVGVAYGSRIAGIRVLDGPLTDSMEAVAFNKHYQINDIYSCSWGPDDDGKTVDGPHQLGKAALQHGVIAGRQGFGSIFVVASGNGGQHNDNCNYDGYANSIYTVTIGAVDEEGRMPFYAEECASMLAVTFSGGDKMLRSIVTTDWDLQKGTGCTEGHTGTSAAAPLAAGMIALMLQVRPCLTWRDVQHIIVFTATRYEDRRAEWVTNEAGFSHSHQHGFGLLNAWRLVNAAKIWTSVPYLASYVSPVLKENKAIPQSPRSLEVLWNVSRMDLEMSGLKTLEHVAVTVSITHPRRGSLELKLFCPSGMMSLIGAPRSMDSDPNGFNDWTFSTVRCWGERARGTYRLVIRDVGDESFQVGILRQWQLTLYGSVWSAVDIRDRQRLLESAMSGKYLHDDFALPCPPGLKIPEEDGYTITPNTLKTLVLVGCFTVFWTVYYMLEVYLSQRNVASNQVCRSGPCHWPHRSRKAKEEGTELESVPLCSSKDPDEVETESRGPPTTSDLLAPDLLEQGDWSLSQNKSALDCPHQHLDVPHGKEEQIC

[2] = target: T1, Proprotein convertase subtilisin/kexin type 7 (Homo sapiens); test: Inhibition of recombinant type 8 subtilisin using Arg-Glu-(EDANS)- Ser-Gln-Asn-Tyr-Pro-Ile-Val-Gln-Lys-(DALBCYL)-Arg fluorogenic substrate at 0.01 ug/ml preincubated for 1 hr measured after 1 hr at 1 min interval by fluorescence assay
[3] = Inhibition of pepsin from porcine gastric mucosa using Arg-Glu-(EDANS)- Ser-Gln-Asn-Tyr-Pro-Ile-Val-Gln-Lys-(DALBCYL)-Arg fluorogenic substrate preincubated for 1 hr measured after 1 hr at 1 min interval by fluorescence assay; parameters: species or system Sus scrofa
[4] = target: T1, Proprotein convertase subtilisin/kexin type 7 (Homo sapiens); test: Inhibition of recombinant type 8 subtilisin using Arg-Glu-(EDANS)- Ser-Gln-Asn-Tyr-Pro-Ile-Val-Gln-Lys-(DALBCYL)-Arg fluorogenic substrate at 1 ug/ml preincubated for 1 hr measured after 1 hr at 1 min interval by fluorescence assay
[5] = target: T1, Proprotein convertase subtilisin/kexin type 7 (Homo sapiens); test: Inhibition of recombinant type 8 subtilisin using Arg-Glu-(EDANS)- Ser-Gln-Asn-Tyr-Pro-Ile-Val-Gln-Lys-(DALBCYL)-Arg fluorogenic substrate at 0.1 ug/ml preincubated for 1 hr measured after 1 hr at 1 min interval by fluorescence assay

Compound	inhibition [1]	inhibition [2]	IC50 [3]	inhibition [4]	inhibition [5]
C=C(CO)[C@@]12O[C@@H]1[C@@]1(C)C(=CC2=O)[C@H](OC(=O)C(O)(CO)CC(C)CC(C)CC)CC[C@@H]1C (stereo partly drawn) [XYLARENONE D]	< 10%	< 10%	115 µM	< 10%	< 10%
O=c1oc2ccccc2c(O)c1Cc1c(O)c2ccccc2oc1=O [DICUMAROL]	–	–	4.57 µM	–	–
CC(=O)CC(c1ccccc1)c1c(O)c2ccccc2oc1=O (stereo not drawn) [WARFARIN]	–	–	0.00832 µM	–	–

Second part, the compound after the results:

inhibition [1]	inhibition [2]	IC50 [3]	inhibition [4]	inhibition [5]	Compound
< 10%	< 10%	127 µM	< 10%	< 10%	C=C(CO)[C@@]12O[C@@H]1[C@@]1(C)C(=CC2=O)[C@H](OC(=O)C(O)(CO)CC(C)CC(C)C(C)O)CC[C@@H]1C (stereo partly drawn) [XYLARENONE E]
–	–	0.288 µM	–	–	C=C(CO)[C@@]12O[C@@H]1[C@@]1(C)C(=CC2=O)[C@H](OC(=O)C(C)CC(C)CC(C)CC)CC[C@@H]1C (stereo partly drawn) [XYLARENONE C]
< 10%	< 10%	2.43 µM	< 10%	< 10%	C=C(CO)[C@@]12O[C@@H]1[C@@]1(C)C(=CC2=O)[C@H](O)CC[C@@H]1C [XYLARENONE A]
